Source: PubChem BioAssay AID248 (DTP/NCI, 2004)
“And” between values parts separate entries of the source, which are not always exact repeats. Equal values may be shown once. Inconclusive results and toxic doses are left out. No stated cut-off is given here; in the data, active means T/C of 150% or more; inactive means T/C below 125%.

Test system: L1210 leukemia ip in BDF1 mice, survival T/C
Assay: NCI In Vivo Anticancer Drug Screen. Data for tumor model L1210 Leukemia (intraperitoneal) in B6D2F1 (BDF1) mice
Conditions: endpoint: mean survival time, higher = longer survival
Outline: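 Mice bearing the transplanted tumor received compound or vehicle. Survival of the treated group was divided by that of the vehicle-treated control group to give the ratio.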

[1] = dose: 100.0 mg/kg/injection, schedule: Q01DX001 (ip), vehicle: saline
[2] = dose: 200.0 mg/kg/injection, schedule: Q01DX001 (ip), vehicle: saline
[3] = dose: 100.0 mg/kg/injection, schedule: Q01DX009 (ip), vehicle: Klucel (hydroxypropylcellulose) (HPC)
[4] = dose: 200.0 mg/kg/injection, schedule: Q01DX009 (ip), vehicle: Klucel (hydroxypropylcellulose) (HPC)
[5] = dose: 100.0 mg/kg/injection, schedule: Q01DX001 (ip), vehicle: saline with Tween-80
[6] = dose: 200.0 mg/kg/injection, schedule: Q01DX001 (ip), vehicle: saline with Tween-80
[7] = dose: 400.0 mg/kg/injection, schedule: Q01DX009 (ip), vehicle: Klucel (hydroxypropylcellulose) (HPC)
[8] = dose: 100.0 mg/kg/injection, schedule: Q04DX002 (ip), vehicle: saline
[9] = dose: 200.0 mg/kg/injection, schedule: Q04DX002 (ip), vehicle: saline
[10] = dose: 400.0 mg/kg/injection, schedule: Q04DX002 (ip), vehicle: saline
[11] = dose: 400.0 mg/kg/injection, schedule: Q01DX001 (ip), vehicle: saline

Measured: T/C

Cc1cc(N)c2cc(NC(=O)CCCCCCCCC(=O)Nc3ccc4nc(C)cc(N)c4c3)ccc2n1
inactive: dose: 8.9 mg/kg/injection, schedule: Q01DX Z (ip), vehicle: saline 103 % of control and 114 % of control | dose: 12.0 mg/kg/injection, schedule: Q01DX Z (ip), vehicle: methylcellulose (MC) 96 % of control | dose: 12.0 mg/kg/injection, schedule: Q01DX Z (ip), vehicle: saline 121 % of control | dose: 13.3 mg/kg/injection, schedule: Q01DX Z (ip), vehicle: carboxymethylcellulose (CMC) 114 % of control | dose: 13.3 mg/kg/injection, schedule: Q01DX Z (ip), vehicle: saline 111 % of control | dose: 18.0 mg/kg/injection, schedule: Q01DX Z (ip), vehicle: methylcellulose (MC) 100 % of control | dose: 18.0 mg/kg/injection, schedule: Q01DX Z (ip), vehicle: saline 119 % of control | dose: 20.0 mg/kg/injection, schedule: Q01DX Z (ip), vehicle: carboxymethylcellulose (CMC) 112 % of control | dose: 20.0 mg/kg/injection, schedule: Q01DX Z (ip), vehicle: saline 114 % of control and 122 % of control | dose: 27.0 mg/kg/injection, schedule: Q01DX Z (ip), vehicle: methylcellulose (MC) 96 % of control | dose: 27.0 mg/kg/injection, schedule: Q01DX Z (ip), vehicle: saline 123 % of control | dose: 30.0 mg/kg/injection, schedule: Q01DX Z (ip), vehicle: carboxymethylcellulose (CMC) 108 % of control | dose: 30.0 mg/kg/injection, schedule: Q01DX Z (ip), vehicle: saline 115 % of control | dose: 40.0 mg/kg/injection, schedule: Q01DX Z (ip), vehicle: methylcellulose (MC) 96 % of control | dose: 40.0 mg/kg/injection, schedule: Q01DX Z (ip), vehicle: saline 121 % of control | dose: 50.0 mg/kg/injection, schedule: Q01DX001 (ip), vehicle: saline 106 % of control | dose: 90.0 mg/kg/injection, schedule: Q01DX Z (ip), vehicle: methylcellulose (MC) 107 % of control | dose: 90.0 mg/kg/injection, schedule: Q01DX Z (ip), vehicle: saline 113 % of control and 121 % of control and 86 % of control | [1] 120 % of control | dose: 100.0 mg/kg/injection, schedule: Q04DX003 (ip), vehicle: carboxymethylcellulose (CMC) 121 % of control | dose: 135.0 mg/kg/injection, schedule: Q01DX Z (ip), vehicle: methylcellulose (MC) 93 % of control | [2] 112 % of control | dose: 200.0 mg/kg/injection, schedule: Q04DX003 (ip), vehicle: carboxymethylcellulose (CMC) 117 % of control | dose: 400.0 mg/kg/injection, schedule: Q04DX003 (ip), vehicle: carboxymethylcellulose (CMC) 116 % of control

O=c1[nH]c(=O)c2[nH]c(N=Nc3ccc(S(=O)(=O)N(CCCl)CCCl)cc3)nc2[nH]1
inactive: dose: 50.0 mg/kg/injection, schedule: Q01DX009 (ip), vehicle: Klucel (hydroxypropylcellulose) (HPC) 97 % of control | [3] 92 % of control | [4] 94 % of control

CCCCCCCCCCc1ccc(CCCCCCCCCC)cc1
inactive: [5] 94 % of control | [6] 92 % of control | dose: 400.0 mg/kg/injection, schedule: Q01DX001 (ip), vehicle: saline with Tween-80 99 % of control

CCCCS(=O)(=O)c1ccc(OC)c(NC(C)=O)c1
inactive: dose: 75.0 mg/kg/injection, schedule: Q04DX003 (ip), vehicle: Klucel (hydroxypropylcellulose) (HPC) 103 % of control | dose: 100.0 mg/kg/injection, schedule: Q01DX001 (ip), vehicle: Klucel (hydroxypropylcellulose) (HPC) 98 % of control | dose: 150.0 mg/kg/injection, schedule: Q04DX003 (ip), vehicle: Klucel (hydroxypropylcellulose) (HPC) 96 % of control | dose: 200.0 mg/kg/injection, schedule: Q01DX001 (ip), vehicle: Klucel (hydroxypropylcellulose) (HPC) 107 % of control | dose: 300.0 mg/kg/injection, schedule: Q04DX003 (ip), vehicle: Klucel (hydroxypropylcellulose) (HPC) 107 % of control | dose: 400.0 mg/kg/injection, schedule: Q01DX001 (ip), vehicle: Klucel (hydroxypropylcellulose) (HPC) 100 % of control

CN=C(N)C(N)=NC
inactive: dose: 100.0 mg/kg/injection, schedule: Q04DX003 (ip), vehicle: saline with Tween-80 104 % of control | dose: 200.0 mg/kg/injection, schedule: Q04DX003 (ip), vehicle: saline with Tween-80 102 % of control | dose: 400.0 mg/kg/injection, schedule: Q04DX003 (ip), vehicle: saline with Tween-80 95 % of control

CCOC(=O)CSCc1cc(=O)[nH]c(=O)[nH]1
inactive: dose: 100.0 mg/kg/injection, schedule: Q04DX003 (ip), vehicle: saline 96 % of control | dose: 200.0 mg/kg/injection, schedule: Q04DX003 (ip), vehicle: saline 98 % of control | dose: 400.0 mg/kg/injection, schedule: Q04DX003 (ip), vehicle: saline 102 % of control

COC(=O)CCN1C(=O)c2ccccc2C1=O
inactive: [5] 110 % of control | [6] 102 % of control

CCN(CC)S(=O)(=O)c1ccc(OC)c(N)c1
inactive: [3] 98 % of control | dose: 100.0 mg/kg/injection, schedule: Q04DX003 (ip), vehicle: other 96 % of control | [4] 96 % of control | dose: 200.0 mg/kg/injection, schedule: Q04DX003 (ip), vehicle: other 104 % of control | [7] 104 % of control | dose: 400.0 mg/kg/injection, schedule: Q04DX003 (ip), vehicle: other 100 % of control

COC(=O)c1cc(Cl)ccc1OCC(=O)Nc1cccc([N+](=O)[O-])c1
inactive: [3] 96 % of control | dose: 100.0 mg/kg/injection, schedule: Q04DX002 (ip), vehicle: Klucel (hydroxypropylcellulose) (HPC) 94 % of control | [8] 94 % of control | [4] 89 % of control | dose: 200.0 mg/kg/injection, schedule: Q04DX002 (ip), vehicle: Klucel (hydroxypropylcellulose) (HPC) 92 % of control | [9] 97 % of control | [7] 104 % of control | dose: 400.0 mg/kg/injection, schedule: Q04DX002 (ip), vehicle: Klucel (hydroxypropylcellulose) (HPC) 92 % of control | [10] 97 % of control

CC(C)(C)OC(=O)NC(Cc1ccccc1)C(=O)O (centres undefined)
inactive: [1] 100 % of control | [2] 94 % of control | [11] 93 % of control

CC(=O)C1CC[C@@]2(C)C(CC[C@H]3[C@@H]4CCC[C@H]([C@H](C)O)[C@@]4(C)CC[C@@H]32)C1 (some centres undefined)
inactive: dose: 100.0 mg/kg/injection, schedule: Q04DX003 (ip), vehicle: steriod suspending solution 106 % of control | dose: 200.0 mg/kg/injection, schedule: Q04DX003 (ip), vehicle: steriod suspending solution 95 % of control | dose: 400.0 mg/kg/injection, schedule: Q04DX003 (ip), vehicle: steriod suspending solution 119 % of control

COP(=O)(O)CC(C)=O (tested in a mixture with another compound)
inactive: [8] 101 % of control | [9] 101 % of control | [10] 101 % of control

CC1C(C(N)=O)C(=O)OC1(C)C (centres undefined)
inactive: [1] 89 % of control | [2] 104 % of control | [11] 98 % of control

O=Cc1ccc(O)c(O)c1
inactive: dose: 100.0 mg/kg/injection, schedule: Q01DX Z (ip), vehicle: other 101 % of control and 102 % of control | dose: 150.0 mg/kg/injection, schedule: Q01DX Z (ip), vehicle: other 101 % of control and 107 % of control | dose: 160.0 mg/kg/injection, schedule: Q01DX Z (ip), vehicle: carboxymethylcellulose (CMC) 115 % of control | dose: 160.0 mg/kg/injection, schedule: Q01DX Z (ip), vehicle: other 122 % of control | dose: 225.0 mg/kg/injection, schedule: Q01DX Z (ip), vehicle: other 98 % of control and 120 % of control | dose: 240.0 mg/kg/injection, schedule: Q01DX Z (ip), vehicle: carboxymethylcellulose (CMC) 122 % of control | dose: 340.0 mg/kg/injection, schedule: Q01DX Z (ip), vehicle: other 101 % of control and 107 % of control | dose: 510.0 mg/kg/injection, schedule: Q01DX Z (ip), vehicle: other 113 % of control | dose: 540.0 mg/kg/injection, schedule: Q01DX Z (ip), vehicle: other 93 % of control | dose: 750.0 mg/kg/injection, schedule: Q01DX Z (ip), vehicle: other 113 % of control

COc1ccc2c(c1C)CCC1(CO)C(C(C)=O)=CCC21 (centres undefined)
inactive: [3] 105 % of control | dose: 100.0 mg/kg/injection, schedule: Q04DX003 (ip), vehicle: Klucel (hydroxypropylcellulose) (HPC) 92 % of control | [4] 110 % of control | dose: 200.0 mg/kg/injection, schedule: Q04DX003 (ip), vehicle: Klucel (hydroxypropylcellulose) (HPC) 97 % of control | [7] 100 % of control | dose: 400.0 mg/kg/injection, schedule: Q04DX003 (ip), vehicle: Klucel (hydroxypropylcellulose) (HPC) 102 % of control

Clc1nnc2c3ccccc3ccn12
inactive: [1] 96 % of control | [2] 98 % of control
